Measurements: paper PMC11100219, “Dual-function antimicrobial-antibiofilm peptide hybrid to tackle biofilm-forming Staphylococcus epidermidis” (Annals of Clinical Microbiology and Antimicrobials, 2024)
Residues, ends and D or L forms follow the SMILES beside them.

Columns and labels:
S. epidermidis = experiment: Serum stability by MIC in human serum; assay type: cell-based, Staphylococcus epidermidis; details: 10^6 CFU/mL, 24 h, 37°C
Method: The stability of BiF2_5K7K in the presence of human serum was assessed by evaluating the MIC values, as previously described. Human serum was subjected to heat inactivation at 56°C for 30 min. Bacterial suspensions were then adjusted to a concentration of 10^6 CFU/mL in MHB supplemented with 25% and 50% human serum. These suspensions were mixed with two-fold serially diluted concentrations of BiF2_5K7K (ranging from 0.98 to 250 µg/mL) and incubated at 37°C for 24 h. MICs were subsequently determined as described above. The study protocol was ethically approved by the Thammasat University Ethics Committee (COA No. 066/2562). All volunteers provided written informed consent.

[1] = system: planktonic S. epidermidis; experiment: Time-killing analysis; assay type: cell-based, Staphylococcus epidermidis; details: for number of S. epidermidis: within 4 h, MHB, 37°C
Method: The time-dependent bactericidal activity of BiF2_5K7K against planktonic S. epidermidis was determined as previously described. In brief, mid-log phase bacteria in MHB were exposed to BiF2_5K7K at MIC and/or MBC for 24 h at 37°C. The bacterial suspensions were obtained at specific time point (0, 2, 4, 6, 8 and 24 h), and 10-fold serially diluted with PBS and then plated on TSA. Untreated bacterial suspension was served as a control. After incubation, the number of CFUs was determined by colony count.

[2] = system: all gram-positive bacterial strains; experiment: Mean MIC and therapeutic index, gram-positive strains; assay type: cell-based; details: four gram-positive strains
Method: (§1) The minimal inhibitory concentrations (MICs) of peptide derivatives versus planktonic bacteria were assessed using a modification of the broth microdilution assay previously described in the National Committee for Clinical Laboratory Standards (NCCLS). In brief, bacteria at mid-logarithmic growth were collected by centrifugation at 2,500 × g for 5 min. Subsequently, the pellet was resuspended and adjusted in Mueller-Hinton Broth (MHB; BD Bacto™, USA) to an OD620 of 0.05. Fifty µL of bacterial suspensions was transferred to 96-well microplates. Later, 50 µL of peptide derivatives at 0.98–250 µg/mL in 10 mM PBS, was added to wells and incubated for 24 h at 37°C with continuous shaking at 220 rpm. […] The experiments were done in three technical replicates and repeated independently.
(§2) The therapeutic index (TI) is widely used for evaluating a peptide’s efficacy and safety. It is the ratio between the minimum hemolytic concentration (MHC, the concentration causing 10% hemolysis) and the geometric mean (GM) value of the MIC [15]. […] While, both lysine-substituted peptides (BiF2_7K and BiF2_5K7K) had higher TIs against all tested biofilm-forming bacteria than did the two parent peptides, and the TI of BiF2_5K7K was higher than that of BiF2_7K.

[3] = system: human red blood cells (hRBCs); experiment: Hemolysis activity (hemoglobin release); assay type: cell-based; details: 1 h, 37°C
Method: The effect of peptides on human red blood cells (hRBCs) was assessed by observing the release of hemoglobin upon treated with peptide. Briefly, the hRBCs were obtained from healthy volunteers and subsequently diluted in 10 mM PBS to a concentration of 2% hRBCs. An equal volume of 2% hRBCs and peptide at concentration of 0.98–250 µg/mL in 10 mM PBS mixtures were incubated for 1 h at 37°C. Following incubation, the suspension was centrifuged, then supernatants were collected and transferred to 96-well microplates for measurement of absorbance at OD of 405 nm (OD405). This study was performed in accordance with the Thammasat University Ethics Committee (COA No. 066/2562). Written informed consent was obtained from all volunteers.

[4] = system: S. epidermidis (ATCC 35984) biofilm; experiment: Biofilm-formation inhibitory activity, crystal violet staining; assay type: cell-based, Staphylococcus epidermidis; details: CV staining, TSB, 10^6 CFU/mL, 24 h, 37°C, 0.98-250 µg/mL
Method: The biofilm inhibitory activity of peptide derivatives was assessed by modified crystal violet (CV) staining. Briefly, the pellet of S. epidermidis (ATCC 35984) was collected through centrifugation of bacterial suspensions grown overnight at 2,500 × g for 5 min. Subsequently, the pellet was resuspended and diluted with TSB to a final concentration of 10^6 CFU/mL. Then, 50 µL of these diluted suspensions was transferred to 96-well microplates containing same volume of peptide derivatives in 10 mM phosphate buffer saline (PBS; Caisson Labs, USA), with concentrations ranging from 0.98 to 250 µg/mL. Vancomycin was used as positive control while TSB medium without bacteria was used as negative control. After 24 h of incubation and reaching static growth at 37°C, culture media as well as planktonic cells were removed, then the biofilm in each well was washed thrice with 0.85% NaCl. For CV staining, biofilms were fixed with 95% ethanol and stained with a 0.1% (v/v) CV solution for 15 min. After removal of excess dye, each well was washed thrice with 0.85% NaCl and resuspended in 95% ethanol to dissolve bound dye. Absorbance was determined at 570 nm using a Multiskan SkyHigh microplate reader (Thermo Scientific™, Singapore). All experiments were done in six technical replicates and repeated independently three times. Minimum biofilm inhibitory concentrations at 50% and 90% (MBIC50 and MBIC90) refers to concentrations of the peptide at which the inhibition of biofilm was at least 50% and 90%, respectively.

[5] = system: preformed S. epidermidis biofilm; experiment: Biofilm eradication activity (peg lid, colony counting); assay type: cell-based, Staphylococcus epidermidis; details: 24 h treatment
Method: The eradication capacity of BiF2_5K7K against preformed biofilm was examined as previously described with some modifications. In brief, suspensions of S. epidermidis with a final density of 10^6 CFU/mL were added to 96-well microplates, then covered with 96-peg lids (Nunc™ Immuno TSP Lids, Denmark). Following 24 h of incubation at 37°C, the peg lids were washed with 0.85% NaCl to remove culture media and non-adherent cells. Afterwards, the biofilms adherent to peg lids were incubated at 37°C for 24 h with different concentrations of peptide derivatives. The peg lids were subsequently washed and placed on new plates containing PBS. The biofilms on the lid were removed using a water bath sonicator (Bandelin SONOREX™, Germany). Biofilms were subsequently diluted and then placed on TSA. Minimum biofilm eradication concentrations at 50% and 90% (MBEC50 and MBEC90) refer to the concentration of the peptide at which established biofilm was eradicated by at least 50% and 90%, respectively.

[6] = system: all gram-negative bacterial strains; experiment: Mean MIC and therapeutic index, gram-negative strains; assay type: cell-based; details: four gram-negative strains
Method: as §1, §2

With `CC[C@H](C)[C@H](NC(=O)[C@H](CCCCN)NC(=O)[C@H](CCCCN)NC(=O)[C@@H](NC(=O)[C@H](CC(C)C)NC(=O)[C@@H](N)Cc1ccccc1)C(C)C)C(=O)N[C@@H](CCCCN)C(=O)N[C@@H](CCCCN)C(=O)N[C@H](C(=O)N[C@@H](CC(C)C)C(=O)N[C@@H](CCCNC(=N)N)C(=O)N[C@@H](CCCNC(=N)N)C(N)=O)[C@@H](C)CC` [BiF2_5K7K] (H-FLVKKIKKILRR-NH2; N-terminus assumed) the “MIC in the presence of human serum” value (S. epidermidis; MHB with 25% heat-inactivated human serum) was 15.63 µg/mL, the “MIC in the presence of human serum” value (S. epidermidis; MHB with 50% heat-inactivated human serum) was 15.63 µg/mL and the “number of S. epidermidis” value ([1]; peptide at MBC) was “approximately 10^3 CFU/mL”. The regrowth ([1]; peptide at MIC, after 8 h) was “regrowth was observed”, the “number of S. epidermidis” value ([1]; peptide at MIC) was “approximately 10^3 CFU/mL” and the “GM +, geometric mean of MIC values from all gram-positive bacterial strains” value [2] was 199.22 µg/mL. The hemolytic activity ([3]; at 250 µg/mL (maximum concentration tested)) was “less than 10%”, the “MHC, minimum hemolytic concentration” value ([3]; peptide concentration causing 10% hemolysis of hRBCs, 2% hRBCs in 10 mM PBS, OD405) was over 250 µg/mL and the MBIC50 ([4]; minimum concentration inhibiting biofilm formation more than 50%) was 7.81 µg/mL. For the same compound, the MBIC90 ([4]; minimum concentration inhibiting biofilm formation more than 90%) was 31.25 µg/mL, the MBEC50 ([5]; 24 h preformed biofilm on peg lids, 37°C) was 31.25 µg/mL and the MBEC90 ([5]; more than 90% of mature biofilm eradicated) was 125 µg/mL. The “GM-, geometric mean of MIC values from all gram-negative bacterial strains” value [6] was 93.75 µg/mL.
